Reference: patent US12698473B2, “Cell-containing structure” (Ricoh Company, Ltd., priority 2021, dated 2026)

Tests used:
[1] = test system: cultured product composed of cell masses containing hiPSC-Neuron and astrocytes derived from a human fetus; assay: Pharmacological test with anti-epileptic drugs on MEA plate (extracellular potential, raster plot, number of spikes); format: cell-based; settings: Before vs After drug exposure; FIGS. 6-8
Procedure: From 22 days after cell seeding, once a week, extracellular potential data was acquired for 10 minutes using an extracellular measurement device maestro (Axion Biosystems).
(§1) That is, using maestro Pro (commercially available from Axion Biosystems), for the prepared MEA Cytoview Plate (commercially available from Axion Biosystems), the results of the extracellular potential of the cultured product 2 composed of cell masses containing hiPSC-Neuron and astrocytes derived from a human fetus, which were adhered to the well bottom 1 shown in FIG. 1 and FIG. 2, measured using maestro Pro for 10 minutes are illustrated as a raster plot 6 of FIG. 3 and a graph 7 of the number of detected spikes. […] The spontaneous firing frequency (Hz) can be detected from the number of peaks in the graph 7 per hour.
Using the plate produced in Experimental Example 1, a pharmacological test was performed using various drugs. The effect of the drug was confirmed by exposing an anti-epileptic drug having a function of inhibiting nerve firing to a sample. The evaluated drugs were Carbamazepine, Phenytoin, and Zonisamide, and the measurement was performed under the same conditions as the measurement of the extracellular potential data of Experimental Example 1.
A graph of a raster plot that visualizes the firing state and the number of detected. spikes for each drug is shown for Carbamazepine in FIG. 6, Phenytoin in FIG. 7, and Zonisamide in FIG. 8. Before in the drawings indicates before drug exposure, and After indicates after drug exposure. In all of the drugs, it was observed that the spontaneous firing frequency that could be detected from the number of spikes after drug exposure was reduced, and the mode in which that firing activity of the nerve was reduced after drug exposure was confirmed. That is, it was observed that the plate of this example could be used for detection in the pharmacological test using various drugs.

[2] = test system: cultured product composed of cell masses containing hiPSC-Neuron and astrocytes derived from a human fetus; assay: Evaluation of electrophysiological neurotoxicity of test compound: firing frequency response on MEA plate; format: cell-based; settings: spontaneous firing frequency before exposure 200 Hz or more per 16 electrodes; compared with 4 times or more at 4 to <100 Hz; FIG. 10
Procedure: A multi-electrode array (MEA) plate was prepared as a cell-containing container which is a cell-containing structure of the present embodiment.
As a plate used for the MEA plate, CytoView MEA Plate (commercially available from Axion Biosystems) having 6×8 wells (a total of 48 wells) and a micro electrode array on the well bottom was used. […]
In the main test, the action potential of neurons adhered onto a micro electrode 3 arranged on the well bottom as shown in FIG. 1 was measured as an extracellular potential, and the neurotoxicity was evaluated from the change in extracellular potential when the test compound was treated. […]
as §1, with “[…]. […]” for “hour.”

Row | SMILES | spontaneous firing frequency detected from the number of spikes after drug exposure [1] | response rate to the test compound (firing frequency after exposure) [2]
1 | NC(=O)N1c2ccccc2C=Cc2ccccc21 [Carbamazepine] | reduced | 
2 | Nc1ccncc1 [4-AP] |  | about half that
3 | NS(=O)(=O)Cc1noc2ccccc12 [Zonisamide] | reduced | 
4 | O=C1NC(=O)C(c2ccccc2)(c2ccccc2)N1 [Phenytoin] | reduced | 
5 | CC[C@@H]1C(=O)OC[C@@H]1Cc1cncn1C [Pilocarpine] |  | about half that
